# Measurements as given in patent US20240366586A1, “METHODS AND AGENTS FOR MODULATING THE IMMUNE RESPONSE” (The Regents of the University of California, priority 2021, published 2024).
# Structures can show the parent of a compound that is named as a salt.
# Key:
# Il12b [1] = test: Dual-fluorescence reporter macrophage cell line screen, lipopolysaccharide-stimulated: chromatinized Il12b-eGFP versus minimal Il12b-DsRed reporter; assay type: cell-based; conditions: for selective inhibition of the chromatinized Il12b reporter (eGFP) but not the minimal reporter (DsRed): lipopolysaccharide-stimulated dual-fluorescence reporter macrophage cell line; for inhibition of IL12b, eGFP fluorescence as readout: additional compounds of Formulas (I)-(IV), same screening procedure
# Description: We hypothesized that molecules that inhibit the “chromatinized” Il12b reporter but not the “minimal” Il12b reporter would offer a greater degree of Il12b inhibition selectivity.
# We generated a dual-fluorescence reporter macrophage cell line having both a [Il12b]-[eGFP] chromatin-based construct and a [Il12b]-[DSred] plasmid vector. FIG. 3. We then stimulated an […] response in the cell line using lipopolysaccharide, an activator of Il12b expression, and tested a library of over 60,000 known and unknown (i.e., undescribed in the literature) small-molecule compounds.
# Additional compounds in Formulas (I)-(IV) were screened following the same procedure as described above, with eGFP fluorescence as a readout for inhibition of IL12b.
# Il12b [2] = test: RNA-Seq / ATAC-Seq of lipopolysaccharide-induced genes in treated macrophages; assay type: cell-based
# Description: Our screening experiment identified as compounds that […]. Using ATAC-Seq and RNA-Seq analyses, we confirmed that the screen indeed identified hits that work by affecting chromatin, and confirmed that β adrenergic agonists, (and in particular β2 adrenergic agonists) are indeed exquisitely selective inhibitors of Il12b gene expression.
# The inhibition of Il12b by β agonists occurs upon stimulation of macrophages with other inflammatory stimuli, including CpG DNA, double stranded RNA, and imiquimod. We confirmed that the cAMP/PKA pathway, but not the exchange factor directly activated by cAMP (EPAC) pathway, was largely responsible for mediating the Il12b suppression by 0-agonists.
# FIG. 7B depicts a fold change box plot in samples treated with UK17 (3-fluoro-N′-[(5-nitro-2-thienyl)methylene]benzohydrazide (CID #6895129)), classifying lipopolysaccharide-induced genes by gene-regulation cluster as previously described in Tong A. et al., A Stringent Systems Approach Uncovers Gene-Specific Mechanisms Regulating Inflammation, Cell 165 165-179 (2016). Box plots indicate the distribution of fold change values for each cluster. Red lines are drawn at 1 and −1, indicating a 2-fold up or down-regulation of genes. Il12b is labeled in red.
SMILES,selective inhibition of the chromatinized Il12b reporter (eGFP) but not the minimal reporter (DsRed) (Il12b [1]),"inhibition of IL12b, eGFP fluorescence as readout (Il12b [1])",also measured
C/C(=C\c1cccc2ccccc12)[N+](=O)[O-] [1-(2-nitro-1-propen-1-yl)naphthalene],selective inhibitors of chromatinized Il12b,,
CCOc1ccc(/C=C/[N+](=O)[O-])cc1 [1-ethoxy-4-(2-nitrovinyl)benzene],selective inhibitors of chromatinized Il12b,,
O=C(/C(=C/c1cccnc1)c1nc2ccccc2[nH]1)c1ccccc1 [2-(1H-benzimidazol-2-yl)-1-phenyl-3-(3-pyridinyl)-2-propen-1-one],selective inhibitors of chromatinized Il12b,,
NC(=O)c1ccccc1/N=C/c1ccc([N+](=O)[O-])s1 [2-{[(5-nitro-2-thienyl)methylene]amino}benzamide],selective inhibitors of chromatinized Il12b,,
CC[n+]1c2ccccc2nc2ccccc21 [5-ethylphenazin-5-ium ethyl sulfate],selective inhibitors of chromatinized Il12b,,
O=c1cc(C(Cl)(Cl)Cl)oc2ccc(Cl)cc12 [6-chloro-2-(trichloromethyl)-4H-chromen-4-one],selective inhibitors of chromatinized Il12b,,
"COc1cc(OC)cc(C(=O)N(Cc2ccc(F)cc2)Cc2cc3c(C)ccc(C)c3[nH]c2=O)c1 [Compound I-2, N-[(5,8-dimethyl-2-oxo-1H-quinolin-3-yl)methyl]-N-[(4-fluorophenyl)methyl]-3,5-dimethoxybenzamide]",,Positive activity,
"CCOc1ccc2[nH]c(=O)c(CN(Cc3ccco3)C(=O)c3ccc(C(C)(C)C)cc3)cc2c1 [Compound I-3, 4-tert-butyl-N-[(6-ethoxy-2-oxo-1H-quinolin-3-yl)methyl]-N-(furan-2-ylmethyl)benzamide]",,Positive activity,
"Cc1ccc(NC(=O)N(Cc2ccco2)Cc2cc3cc4c(cc3[nH]c2=O)OCCO4)cc1 [Compound I-4, 1-(furan-2-ylmethyl)-3-(4-methylphenyl)-1-[(7-oxo-3,6-dihydro-2H-[1,4]dioxino[2,3-g]quinolin-8-yl)methyl]urea]",,Positive activity,
"CCOc1ccc2[nH]c(=O)c(CN(Cc3ccco3)C(=O)Nc3ccc(OC)cc3)cc2c1 [Compound I-5, 1-[(6-ethoxy-2-oxo-1H-quinolin-3-yl)methyl]-1-(furan-2-ylmethyl)-3-(4-methoxyphenyl)urea]",,Positive activity,
"CCOc1ccc(NC(=S)N(Cc2ccco2)Cc2cc3ccc(C)cc3[nH]c2=O)cc1 [Compound I-6, 3-(4-ethoxyphenyl)-1-(furan-2-ylmethyl)-1-[(7-methyl-2-oxo-1H-quinolin-3-yl)methyl]thiourea]",,Positive activity,
"Cc1ccc(NC(=O)N(Cc2ccco2)Cc2cc3cc4c(cc3[nH]c2=O)OCO4)cc1 [Compound I-7, 1-(furan-2-ylmethyl)-3-(4-methylphenyl)-1-[(6-oxo-5H-[1,3]dioxolo[4,5-g]quinolin-7-yl)methyl]urea]",,Positive activity,
"O=C(NCc1ccccc1)N(Cc1ccco1)Cc1cc2cc3c(cc2[nH]c1=O)OCO3 [Compound I-8, 3-benzyl-1-(furan-2-ylmethyl)-1-[(6-oxo-5H-[1,3]dioxolo[4,5-g]quinolin-7-yl)methyl]urea]",,Positive activity,
"CCc1ccc2[nH]c(=O)c(CN(Cc3ccco3)C(=S)NCc3ccccc3)cc2c1 [Compound I-9, 3-benzyl-1-[(6-ethyl-2-oxo-1H-quinolin-3-yl)methyl]-1-(furan-2-ylmethyl)thiourea]",,Positive activity,
"Cc1ccc(C)c2[nH]c(=O)c(CN(Cc3ccco3)C(=S)NCc3ccco3)cc12 [Compound I-10, 1-[(5,8-dimethyl-2-oxo-1H-quinolin-3-yl)methyl]-1,3-bis(furan-2-ylmethyl)thiourea]",,Positive activity,
"CCOc1ccc2[nH]c(=O)c(CN(Cc3ccco3)C(=O)c3cccs3)cc2c1 [Compound I-11, N-[(6-ethoxy-2-oxo-1H-quinolin-3-yl)methyl]-N-(furan-2-ylmethyl)thiophene-2-carboxamide]",,Positive activity,
"O=C(CCc1ccccc1)N/N=C\c1ccc([N+](=O)[O-])s1 [II-2, N—[(Z)-(5-nitrothiophen-2-yl)methylideneamino]-3-phenylpropanamide]",,Positive activity,
"O=C(N/N=C\c1ccc([N+](=O)[O-])o1)c1ccc(-c2ccccc2)cc1 [II-3, N—[(Z)-(5-nitrofuran-2-yl)methylideneamino]-4-phenylbenzamide]",,Positive activity,
"C/C(=N\NC(=O)c1cccc(Cl)c1)c1ccc([N+](=O)[O-])o1 [II-4, 3-chloro-N-[(E)-1-(5-nitrofuran-2-yl)ethylideneamino]benzamide]",,Positive activity,
"O=C(Cc1ccc(Cl)cc1)N/N=C\c1ccc([N+](=O)[O-])o1 [II-5, 2-(4-chlorophenyl)-N—[(Z)-(5-nitrofuran-2-yl)methylideneamino]acetamide]",,Positive activity,
"O=C(N/N=C\c1ccc([N+](=O)[O-])o1)c1cccc2ccccc12 [II-6, N—[(Z)-(5-nitrofuran-2-yl)methylideneamino]naphthalene-1-carboxamide]",,Positive activity,
"O=c1cccc2n1C[C@H]1C[C@@H]2CN(Cc2ccc3ccc4cccc5ccc2c3c45)C1 [III-2, (1R,9S)-11-(pyren-1-ylmethyl)-7,11-diazatricyclo[7.3.1.0^2,7]trideca-2,4-dien-6-one]",,Positive activity,
"COc1ccc(Br)cc1/C=C/C(=O)c1ccc2c(c1)OCCO2 [IV-2, (E)-3-(5-bromo-2-methoxyphenyl)-1-(2,3-dihydro-1,4-benzodioxin-6-yl)prop-2-en-1-one]",,Positive activity,
"COc1ccc(OC)c(/C=C/C(=O)c2ccc(C)cc2)c1 [IV-3, (E)-3-(2,5-dimethoxyphenyl)-1-(4-methylphenyl)prop-2-en-1-one]",,Positive activity,
"COc1ccc(C(=O)/C=C/c2cccc(Cl)c2)cc1OC [IV-4, (E)-3-(3-chlorophenyl)-1-(3,4-dimethoxyphenyl)prop-2-en-1-one]",,Positive activity,
"CCOc1ccc(C(=O)/C=C/c2cccc(OC)c2OC)cc1 [IV-5, (E)-3-(2,3-dimethoxyphenyl)-1-(4-ethoxyphenyl)prop-2-en-1-one]",,Positive activity,
CC(=O)Nc1ccc(Br)cc1-c1ccccc1 [N-(5-bromo-2-biphenylyl)acetamide],selective inhibitors of chromatinized Il12b,,
"Cc1cc2ncn(N=Cc3ccc([N+](=O)[O-])o3)c2cc1C [UK6, 5,6-dimethyl-N-[(5-nitro-2-furyl)methylene]-1H-benzimidazol-1-amine]",selective inhibitors of chromatinized Il12b,,"rank of Il12b among the most strongly inhibited lipopolysaccharide-induced genes (Il12b [2]; genes with RPKM>4 and FC>10, ranked by fold change (Max RPKM with/without compound)): ≤ 20"
"CCCC(=O)Nc1ncnc2c1ncn2[C@@H]1O[C@@H]2COP(=O)(O)O[C@H]2[C@H]1OC(=O)CCC [dibutyryl cyclic AMP, reference compound]",,,"selective inhibition of Il12b gene expression (Il12b [2]; RNA-Seq and ATAC-Seq analyses, macrophages): selectively inhibit IL12b expression"
"CCOC(=O)C(=Cc1ccc2c(c1)C(=O)CC2=O)C(=O)OCC [diethyl [(1,3-dioxo-2,3-dihydro-1H-inden-5-yl)methylene]malonate]",selective inhibitors of chromatinized Il12b,,
